Assay results as given in patent US20040175763A1, “Crohn's disease antibody-binding peptide and method of examining crohn's disease” (priority 2001, published 2004).

test system: Crohn's disease antibody; assay: Reaction inhibition test with one amino acid-substituted MAP peptides on CDP3 MAP plate (Example 6(2)); assay type: binding, human; details: inhibitor MAP peptide 100 μg/mL
Experimental: Referring to the amino acid sequence of CDP peptide, in order to determine the sequence necessary for the specific reactivity to Crohn's disease antibody, the following reaction inhibition test was performed using each of the one amino acid-substituted MAP peptides prepared as above as the reaction inhibitor.
More particularly, using the MAP plate prepared by immobilizing the MAP peptide of CDP3 (see Example 2(1)) as the antigen plate, the test was performed by 3 reaction steps. In the primary reaction, the Crohn's disease patient serum was diluted 100-fold with a sample diluent containing the one amino acid-substituted MAP peptide in a concentration of 100 μg/mL (0.1 M Tris-buffer containing 0.5 M sodium chloride, 1.5% casein, 2% normal goat serum and 0.2% Tween 20) and reacted at 25° C. for one hour. In the secondary reaction, 100 μL/well of the primary reaction mixture was added to the plate and reacted at 25° C. for one hour, after which the plate was washed 3 times. In the tertiary reaction, 100 μL/well of HRP-labeled anti-human IgG (Fc)-specific antibody diluted 5,000-fold in an enzyme-labeled antibody diluent (Tris buffer containing 0.14 M sodium chloride, 0.5% BAS, 5% normal goat serum and 0.05% Tween 20) was added to the plate, and reacted at 25° C. for 1 hour, followed by 3 rounds of washing. Detection was performed as in Example 2(1) to measure the reaction-inhibiting activity of the one amino acid-substituted MAP peptide.

**Q.** For “A E G E L R A S D G Q Y Q M (AEGELRASDGQYQM) [CDP3-7]”, which “reaction-inhibiting activity, Patient serum sample No. 2” value is on record?
**A.** − (−: reaction-inhibiting activity = 30%)

**Q.** And the “reaction-inhibiting activity, Patient serum sample No. 7” value?
**A.** − (−: reaction-inhibiting activity = 30%)

**Q.** What about the “reaction-inhibiting activity, Patient serum sample No. 8” value of the same substance?
**A.** − (−: reaction-inhibiting activity = 30%)

**Q.** Which “reaction-inhibiting activity, Patient serum sample No. 2” value does the source give for “A E G E A R Q S D G Q Y Q M (AEGEARQSDGQYQM) [CDP3-5]” here?
**A.** +++ (+++: reaction-inhibiting activity = 70%)

**Q.** And the “reaction-inhibiting activity, Patient serum sample No. 7” value?
**A.** +++ (+++: reaction-inhibiting activity = 70%)

**Q.** And the “reaction-inhibiting activity, Patient serum sample No. 8” value?
**A.** +++ (+++: reaction-inhibiting activity = 70%)

**Q.** What does the source list for “S E G E L R Q S D G Q Y Q M (SEGELRQSDGQYQM) [CPP3-1]”?
**A.** reaction-inhibiting activity, Patient serum sample No. 2: +++ (+++: reaction-inhibiting activity = 70%); reaction-inhibiting activity, Patient serum sample No. 7: +++ (+++: reaction-inhibiting activity = 70%); reaction-inhibiting activity, Patient serum sample No. 8: +++ (+++: reaction-inhibiting activity = 70%)

**Q.** For “A E G E L R Q S D G Q A Q M (AEGELRQSDGQAQM) [CDP3-12]”, which “reaction-inhibiting activity, Patient serum sample No. 2” value is on record?
**A.** +++ (+++: reaction-inhibiting activity = 70%)

**Q.** And the “reaction-inhibiting activity, Patient serum sample No. 7” value?
**A.** +++ (+++: reaction-inhibiting activity = 70%)

**Q.** What about the “reaction-inhibiting activity, Patient serum sample No. 8” value of the same substance?
**A.** +++ (+++: reaction-inhibiting activity = 70%)

**Q.** What does the source list for “A E G E L R Q S D A Q Y Q M (AEGELRQSDAQYQM) [CDP3-10]”?
**A.** reaction-inhibiting activity, Patient serum sample No. 2: + (+: reaction-inhibiting activity between 30% and 50%); reaction-inhibiting activity, Patient serum sample No. 7: +++ (+++: reaction-inhibiting activity = 70%); reaction-inhibiting activity, Patient serum sample No. 8: +++ (+++: reaction-inhibiting activity = 70%)

**Q.** For “A E G E L R Q A D G Q Y Q M (AEGELRQADGQYQM) [CDP3-8]”, which “reaction-inhibiting activity, Patient serum sample No. 2” value is on record?
**A.** +++ (+++: reaction-inhibiting activity = 70%)

**Q.** What about the “reaction-inhibiting activity, Patient serum sample No. 7” value of the same substance?
**A.** +++ (+++: reaction-inhibiting activity = 70%)

**Q.** And the “reaction-inhibiting activity, Patient serum sample No. 8” value?
**A.** +++ (+++: reaction-inhibiting activity = 70%)

**Q.** With “A A G E L R Q S D G Q Y Q M (AAGELRQSDGQYQM) [CDP3-2]” as the substance, how does the “reaction-inhibiting activity, Patient serum sample No. 2” value read?
**A.** +++ (+++: reaction-inhibiting activity = 70%)

**Q.** And the “reaction-inhibiting activity, Patient serum sample No. 7” value?
**A.** +++ (+++: reaction-inhibiting activity = 70%)

**Q.** And the “reaction-inhibiting activity, Patient serum sample No. 8” value?
**A.** +++ (+++: reaction-inhibiting activity = 70%)

**Q.** How did the “reaction-inhibiting activity, Patient serum sample No. 2” value turn out when “A E G E L R Q S D G A Y Q M (AEGELRQSDGAYQM) [CDP3-11]” was run?
**A.** − (−: reaction-inhibiting activity = 30%)

**Q.** What about the “reaction-inhibiting activity, Patient serum sample No. 7” value of the same substance?
**A.** + (+: reaction-inhibiting activity between 30% and 50%)

**Q.** And the “reaction-inhibiting activity, Patient serum sample No. 8” value?
**A.** − (−: reaction-inhibiting activity = 30%)

**Q.** With “A E G E L R Q S D G Q Y Q A (AEGELRQSDGQYQA) [CDP3-14]” as the substance, how does the “reaction-inhibiting activity, Patient serum sample No. 2” value read?
**A.** +++ (+++: reaction-inhibiting activity = 70%)

**Q.** And the “reaction-inhibiting activity, Patient serum sample No. 7” value?
**A.** +++ (+++: reaction-inhibiting activity = 70%)

**Q.** And the “reaction-inhibiting activity, Patient serum sample No. 8” value?
**A.** +++ (+++: reaction-inhibiting activity = 70%)

**Q.** “A E A E L R Q S D G Q Y Q M (AEAELRQSDGQYQM) [CDP3-3]” was tested. Which “reaction-inhibiting activity, Patient serum sample No. 2” value did it give?
**A.** +++ (+++: reaction-inhibiting activity = 70%)

**Q.** And the “reaction-inhibiting activity, Patient serum sample No. 7” value?
**A.** +++ (+++: reaction-inhibiting activity = 70%)

**Q.** And the “reaction-inhibiting activity, Patient serum sample No. 8” value?
**A.** +++ (+++: reaction-inhibiting activity = 70%)

**Q.** “A E G E L R Q S A G Q Y Q M (AEGELRQSAGQYQM) [CDP3-9]” was tested. Which “reaction-inhibiting activity, Patient serum sample No. 2” value did it give?
**A.** − (−: reaction-inhibiting activity = 30%)

**Q.** And the “reaction-inhibiting activity, Patient serum sample No. 7” value?
**A.** + (+: reaction-inhibiting activity between 30% and 50%)

**Q.** And the “reaction-inhibiting activity, Patient serum sample No. 8” value?
**A.** − (−: reaction-inhibiting activity = 30%)

**Q.** For “A E G E L A Q S D G Q Y Q M (AEGELAQSDGQYQM) [CDP3-6]”, which “reaction-inhibiting activity, Patient serum sample No. 2” value is on record?
**A.** +++ (+++: reaction-inhibiting activity = 70%)

**Q.** And the “reaction-inhibiting activity, Patient serum sample No. 7” value?
**A.** +++ (+++: reaction-inhibiting activity = 70%)

**Q.** What about the “reaction-inhibiting activity, Patient serum sample No. 8” value of the same substance?
**A.** +++ (+++: reaction-inhibiting activity = 70%)
